# Assay results published in patent US11203565B2, “Ester compound and PIN1 inhibitor, inflammatory disease therapeutic, and colon cancer therapeutic in which said ester compound is used” (Hiroshima University, priority 2016, dated 2021).
# Columns and labels:
# NASH model mice = assay: Therapeutic experiment for NASH in MCDD-fed NASH model mice (Example 8); assay type: in vivo, mice (C57BL/6J); details: NASH mice fed MCDD 8 weeks, intraperitoneal 2.5 mg/kg/day 3 times a week
# Method: In order to test the therapeutic effect of a compound of the present invention on non-alcoholic steatohepatitis (NASH), an animal experiment using NASH model mice was carried out.
# The NASH model mice (hereinafter referred to as “NASH mice”) were prepared by feeding male individuals of laboratory mice (C57BL/6J) with methionine-choline-deficient diet (MCDD) for 8 weeks to allow accumulation of fat in the liver. The animal experiment was carried out for a group in which a compound of the present invention (H-31) was intraperitoneally administered 3 times a week at 2.5 mg/kg/day during the 8 weeks of the MCDD feeding period, and a group in which no administration was carried out. In addition, in order to provide control mice, male individuals of laboratory mice (C57BL/6J) were fed with normal diet for 8 weeks.
# The results of measurement of the blood AST (GOT) level and the blood ALT (GPT) level in these mice are shown in FIGS. 8(A) and (B), respectively.
# [1] = system: model animals of ulcerative colitis (3% DSS); assay: Therapeutic experiment using model animals of ulcerative colitis 2 (Example 6); assay type: in vivo, C57BL6 mice; details: DSS mice, 1 mg/kg/day
# Method: To C57BL6 mice of 8 weeks old, 3% DSS (dextran sulfate sodium)-containing water or water (control) was administered by allowing the mice to drink it for 7 days. […] On Day 7 after the beginning of the administration, the body weight of each mouse was measured, and the large intestine was removed from the mouse, followed by carrying out histological study. […] In addition, an experiment for measuring the colon length was carried out.
# [2] = system: model animals of ulcerative colitis (3% DSS); assay: Therapeutic experiment using model animals of ulcerative colitis (Example 4); assay type: in vivo, C57BL6 mice; details: DSS mice, compound 1 mg/kg/day
# Method: To C57BL6 mice of 8 weeks old, 3% DSS (dextran sulfate sodium)-containing water or water (control) was administered by allowing the mice to drink it for 7 days. For the mice to which DSS was administered, groups in which 5-ASA (compound name: 5-aminosalicylic acid; generic name: Mesalazine), which is a therapeutic agent for inflammatory bowel diseases, the compound synthesized in Example 2-7 (H-31), or the compound synthesized in Example 2-36 (H-179) was administered, and a group in which no compound was administered were provided. On Day 7 after the beginning of the administration, the body weight of each mouse was measured, and the large intestine was removed from the mouse, followed by carrying out histological study. […] In FIGS. 4(A) and (B), “normal” indicates a case where water was administered, and “DSS” indicates cases where DSS-containing water was administered. “non” indicates a case where no compound was administered, and “5-ASA”, “H-31”, and “H-179” indicate cases where the respective compounds were administered. The dose was as follows: 5-ASA, 300 mg/kg/day; H-31, 1 mg/kg/day; H-179, 1 mg/kg/day. As shown in FIG. 4(A), weight loss due to inflammation of the intestine was found in the cases where DSS was administered.
# [3] = system: model animals of ulcerative colitis (DSS); assay: Comparison between oral and intraperitoneal administration in DSS mice (Example 5); assay type: in vivo; details: 1 mg/kg/day
# Method: A compound whose therapeutic effect on ulcerative colitis could be confirmed in Example 4 (H-31) was studied on the difference in its effect depending on the administration method. […] In FIGS. 5(A) and (B), “normal” indicates a case where water was administered, and “DSS” indicates cases where DSS-containing water was administered. “non” indicates a case where no compound was administered, and “H-31” indicates a case where the compound synthesized in Example 2-7 was administered.
# colon cancer model mice = assay: Therapeutic experiment for colon cancer in AOM/DSS colon cancer model mice (Example 9); assay type: in vivo; details: oral 1.25 mg/kg/day 3 times a week from Day 6, Day 89, vs control
# Method: On Day 1, azoxymethane (AOM) was intraperitoneally administered at 12 mg/kg to laboratory mice. Thereafter, from Day 6, a course of 5 days of oral administration of 3% dextran sulfate sodium (DSS) and a period of 16 days without administration of DSS was repeated 4 times to prepare colon cancer model mice having cancer caused by inflammation of the large intestine. A group in which a compound of the present invention (H-31) was administered and a group without administration of the compound of the present invention (control) were provided. In the group in which the compound of the present invention (H-31) was administered, oral administration was carried out 3 times a week at 1.25 mg/kg/day from Day 6.
# On Day 89, the colon cancer model mice were dissected, and the number of colon cancer developed and the tumor area per colon cancer (total tumor area/number of tumors) were measured.
# Pin1 protein = assay: Confirmation of Pin1 expression level in the intestinal tract of DSS mice (Example 7); assay type: in vivo; details: after 7 days of administration
# Method: The expression level of Pin1 in the intestinal tract was measured for each mouse subjected to the therapeutic experiment in Example 5.
# The present results also support that the compound synthesized in Example 2-7 (H-31) prevents development of ulcerative colitis.
# Pin1 = target: T1, Pin1 (Homo sapiens, UniProt Q13526); assay: Evaluation of inhibitory activity on function of Pin1: cell assay using degree of AMPK phosphorylation as index; assay type: cell-based; design: key to Pin1 inhibitory activity: −: Promotion of AMPK phosphorylation was not (or hardly) found.; +: Phosphorylation of AMPK was promoted, but the promotion was weaker than that by C1.; ++: Phosphorylation of AMPK was promoted to the same degree as in the case of C1.; +++: Phosphorylation of AMPK was promoted more strongly than in the case of C1; details: 293T cells
# T1 construct: endogenous in cells; host or cells: 293T cells
# Method: In order to evaluate the inhibitory activities of the compounds of the present invention synthesized in Example 2 on the function of Pin1, an assay using cells was carried out according to a method previously developed by the present inventors (Yusuke Nakatsu et al., Journal of Biological Chemistry, 2015, Vol. 290, No. 40, pp. 24255-24266), using as an index the degree of phosphorylation of AMPK (AMP-activated protein kinase), whose phosphorylation is known to be suppressed by Pin1.
# Briefly, 293T cells were plated on a 24-well plate coated with collagen. Forty-eight hours later, each compound (100 μM) synthesized in the Example was added to the plate, and the plate was left to stand in an incubator for 30 minutes. Thereafter, 10 mM 2-DG was added to the plate, and, 1 hour later, each sample was collected using a buffer containing mercaptoethanol and SDS.
# According to conventional methods, SDS-PAGE and blotting were carried out, and then blocking was carried out with 3% BSA for 1 hour. Thereafter, reaction was carried out at normal temperature for 1 hour with each of a pAMPK antibody (Cell signaling 1:2000, Can get signal solution 1: diluted by Toyobo) as a primary antibody, and an HRP-linked anti rabbit IgG (GE healthcare 1:4000, Can get signal solution 2: diluted by Toyobo) as a secondary antibody, to perform detection.
# As a compound to be compared, C1: (R)-2-(5-(4-methoxyphenyl)-2-methylfuran-3-carboxamido)-3-(naphthalene-6-yl)propanoic acid, which is an already reported Pin1 inhibitor, was used.
# In FIG. 3, “-” indicates the degree of phosphorylation of AMPK in a case where no Pin1 inhibitor was added, and “C1”, “H-30”, “H-31”, “H-32”, and “H-33” indicate the degrees of phosphorylation of AMPK in cases where the respective Pin1 inhibitors were added. […] The inhibitory activity on the function of Pin1 was rated as follows based on comparison with the degree of inhibition by C1.
# T1 sequence (Q13526 whole entry): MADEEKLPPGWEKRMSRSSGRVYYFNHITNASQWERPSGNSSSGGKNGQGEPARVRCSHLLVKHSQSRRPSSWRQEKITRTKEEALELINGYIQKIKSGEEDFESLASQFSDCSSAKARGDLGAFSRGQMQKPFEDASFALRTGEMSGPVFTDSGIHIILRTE
structure (smiles),measurement,setting,value
O=C(O[C@H](Cc1ccc2ccccc2c1)C(=O)O)C1c2ccccc2-c2ccccc21 [Compound H-31],blood ALT (GPT) level,NASH model mice,the ALT value decreased
same,blood AST (GOT) level,NASH model mice,the AST value decreased
same,fibrosis of liver tissue (Azan staining),NASH model mice,fibrosis of liver tissue was remarkably suppressed
same,tissue damage in the large intestine (stained section),[1],tissue damage in the large intestine was hardly found
same,change in the colon length,[1]; vs no compound,the change in the colon length was significantly smaller
same,weight loss,[1]; vs no compound,the weight loss was significantly smaller
same,tissue damage in the large intestine (stained section),[2]; Day 7,tissue damage in the large intestine was hardly found
same,weight loss (body weight as ratio to body weight before administration),"[2]; Day 7, vs no compound",the weight loss was significantly smaller
same,body weight change,[3]; intraperitoneal administration,no significant difference was found
same,body weight change,[3]; oral administration,a significant decrease in the body weight change
same,number of colon cancer developed,colon cancer model mice,no significant difference in the number of colon cancer
same,tumor area per colon cancer (total tumor area/number of tumors),colon cancer model mice,reduction of the tumor area could be found
same,increase in the Pin1 protein level in the intestinal tract,Pin1 protein,could be significantly ameliorated
same,Pin1 inhibitory activity,"Pin1; compound 100 μM, 10 mM 2-DG, pAMPK immunoblot rated by comparison with C1",+++
same,inhibitory activity on Pin1 (stated in words),"Pin1; cell-based experiment, 100 μM",both have inhibitory activities on Pin1
